Experimental data taken from patent US20050170019A1, “Methods, compositions and devices for inducing stasis in cells” (Fred Hutchinson Cancer Research Center, priority 2003, published 2005).
Like-named read-outs stand apart in the source and are kept apart here.

Tests used:
[1] = test system: humans; conditions: cited from earlier work
[2] = test system: C. elegans embryos; assay: Viability of nematodes in carbon monoxide based atmospheres; format: in vivo; conditions: for viability (survival) to adulthood: 0.25 kPa O2/CO
Text: To achieve specific atmospheric conditions the following apparatus was used: a glass syringe barrel having a tip with a locking device such as a LUER-LOK with the large opening of the barrel sealed with a custom-machined steel and rubber fitting to make an airtight seal was locked to via locking device to the inlet port of an environmental chamber having an inlet and an outlet port each fitted with a locking devices such as a LUER-LOK fitting. A defined gas was humidified and provided to the environmental chamber by first venting the gas from a compressed tank (Byrne Specialty Gas, Seattle, Wash.) through a gas washing bottle (500 ml Kimex) filled with double distilled water. The gas washing bottle was connected to the environmental chamber past a gas-flow meter. A gas flow meter was used to provide a regulated 70 cc/min flow through the environmental chamber throughout the 24 hr incubation.
(§1) To test whether induced, reversible stasis could be achieved in C. elegans nematodes, 2-cell C. elegans embryos, L3 larvae or adult nematodes were collected and exposed to either an environment of effectively 100% CO, an environment of 100% N2, an environment comprising 500 ppm oxygen balanced with carbon monoxide, or to environments comprising 100, 500 or 1000 ppm oxygen balanced with nitrogen at room temperature. Nematodes were visualized using differential interference contrast microscopy (also known as Nomarski optics). Images were collected and analyzed using NIH image and Adobe Photoshop 5.5. Embryos are approximately 50 μm in length.
Environmental chambers and apparatuses. Oxygen deprivation experiments were carried out using a custom atmospheric chamber designed by W. Van Voorhies (Van Voorhies et al., 2000). The chamber is a 30 mL glass syringe (Fisher #14-825-10B) fitted with a custom steel stopper that is lined with two viton o-rings to ensure a tight seal. The stopper is bored through and has a steel lure lock on the exterior face so that a hose carrying compressed gas can be attached. A defined gas mixture is delivered to the chamber at a constant pressure and flow rate from compressed tanks by passing first through a rotometer (Aalborg, flow-tube number 032-41ST) or mass flow controller (Sierra Instruments #810) to monitor flow rate and then through a 500 ml gas washing bottle (Fisher #K28220-5001) containing 250 ml water to hydrate the gas. ¼” OD nylon (Cole-Parmer #P-06489-06) or FEP (Cole-Parmer #A-06450-05) tubing was used and connections between tubing and the regulators and between the tubing and the rotometers were made with brass John-Guest-type fittings (Byrne Gas). All other connections were made with either microflow quick-connect fittings (Cole-Parmer #A-06363-57, #A-06363-52) or standard lure fittings (Cole-Parmer #A-06359-37, #A-06359-17).
Viability of nematodes in hypoxia. […] Log-phase, adult C. elegans were picked into a drop of sterile water containing 100 μg/ml ampicillin, 15 μg/ml tetracycline and 200 μg/ml streptomycin on a glass plate. Adults were chopped with a razor blade and 2-cell embryos were picked using a mouth pipet. 30-60 2-cell embryos were transferred to a small glass boat (custom made to fit atmospheric chambers, Avalon Glass Works, Seattle Wash.) filled with 3 ml of 1% agarose in M9. Boats were then placed into a humid chamber for 2 hours to allow the embryos to age and then placed into the environmental chamber. The environmental chambers were continuously perfused at room temperature with either pure N2 (grade 4.5), 100 ppm O2/N2, 500 ppm O2/N2, 1000 ppm O2/N2, or 5000 ppm O2/N2 at 70 cc/min for 24 hrs. Following exposure, agarose chunks containing the embryos were cut out of the boat and placed with embryos facing up onto a medium-sized NGM plate seeded with E. coli (OP50). Embryos were scored for hatching 24 hours after exposure and hatched L1's were transferred to the surface of the NGM plate and followed to adulthood. Animals that could not be accounted for were dropped from the total. […]

[3] = test system: C. elegans embryos; assay: Cell biological analysis: arrest of embryogenesis (suspended animation) in carbon monoxide-based atmospheres; format: in vivo
Text: as §1
Cell biological analysis. To determine the extent of developmental progression in nitrogen-based atmospheres (Table 2), 2-cell embryos were exposed to various degrees of hypoxia as described above and were either immediately photographed, or photographed following a 12 hr recovery period in a humid chamber. To determine whether embryos arrested in carbon monoxide-based atmospheres, 2-cell embryos were aged in room air for two hours and were either photographed immediately or put into 100% carbon monoxide or 0.05 kPa O2/CO for 24 hours and photographed immediately following the exposure. In all cases, DIC microscopy was done by placing embryos under a cover slip on a thin 1% agarose pad and viewing on a Zeiss axioscope. Photographs were taken using RS Image and Adobe Photoshop software.

[4] = test system: human keratinocytes; assay: Preservation of human skin in carbon monoxide: keratinocyte growth and colony formation; format: cell-based
Method: Three human foreskins were obtained for this purpose. The foreskin tissue was preserved in keratinocyte growth medium (KGM) containing insulin, EGF (0.1 ng/ml), hydrocortisone ([…]) and bovine pituitary extract (approx. 50 micrograms/ml of protein). Foreskins were rinsed in PBS, and excess fatty tissue was removed. Each foreskin sample was divided into 2 equal pieces. Each piece was placed into a separate container containing a solution of PBS with 24 mg/ml of Dispase II (from Bacillus Polymyxa EC 3.4.24.4:Roche Diagnostics Corp., Indianapolis, Ind.). One container (containing a foreskin piece in PBS with Dispase II) was kept in a humid chamber in a fume hood. The other container (with the other half of the foreskin in PBS with Dispase II) was placed in the same fume hood in an environmental chamber perfused with humidified 100% CO. Both samples were maintained at room temperature for 24 hrs. Methods used to establish defined atmospheric conditions were identical to those used in Example 1.
Following the 24 hr exposure to normoxia or 100% CO, keratinocytes were isolated from the foreskins according to the method described by Boyce et al. (1983; 1985; each of which is incorporated herein by reference in its entirety). Briefly, the epidermis from each foreskin sample was removed to a fresh dish containing PBS. The epidermis was minced and homogenized prior to incubation in 3 ml of 0.05% Trypsin, 1 mM EDTA for 5 minutes, at room temperature, to separate basal cells from the epidermis. After incubation, 6 ml of 400 μg/ml (micrograms per ml) Soybean Trypsin Inhibitor, 1 mg/ml BSA was added and the samples were centrifuged at 900 RPM. The supernatant from each sample was discarded and the sample pellets were resuspended in 10 ml of KGM. Each sample was split into two 10 cm plates each of which contained 5 ml KGM and 100 μl of HEPES pH 7.3 (N-2-hydroxyethylpiperazine-N′-2-ethane sulfonic acid). The plates were incubated in a 37° C. incubator perfused with 95% room air, 5% carbon dioxide for five days.
Cells were inspected visually using an inverted phase contrast microscope. […] Quantitation of the number of viable keratinocytes as judged by colony formation was quantified for two of the three foreskins.

[C-]#[O+] [carbon monoxide]
symptoms ([1]; 50 parts per million (ppm)): no symptoms
symptoms ([1]; 200 ppm, within two-three hours): slight headache
symptoms ([1]; 400 ppm, within one to two hours): frontal headache
symptoms ([1]; 800 ppm): dizziness, nausea, and/or convulsions within 45 minutes, and render the subject insensible within two hours
lethality ([1]; around 1000 ppm, exposure for more than around 1-2 minutes, an organism): can expire
viability (survival) to adulthood ([2]; N2 (wild-type) embryos, 24 hrs): 78.7%
viability (survival) to adulthood ([2]; N2 (wild-type) embryos, 24 hrs, listed as CO): 78.7% ± 21.9
viability to adulthood ([2]; embryos, 0.05 kPa O2 balanced with carbon monoxide, 24 hours): 96.2%
survival to adulthood ([2]; embryos, 101 kPa CO (100% CO), 24 hrs): 81.5%
viability (survival) to adulthood ([2]; hif-1(ia04) embryos, 24 hrs): 84.0%
viability (survival) to adulthood ([2]; hif-1(ia04) embryos, 24 hrs, listed as CO): 83.9% ± 13.8
lethality ([2]; nematodes, 100% carbon monoxide, room temperature, 24 hr): not lethal
suspended animation and survival ([2]; nematodes, 500 ppm oxygen balanced with carbon monoxide): entered into suspended animation and survived
protection against hypoxia (FIG. 3) ([2]; wild-type embryos, 24 hours, 0.05 kPa O2/CO versus 0.05 kPa O2/N2): protects against hypoxia
embryogenesis during exposure ([3]; embryos, 0.05 kPa O2 balanced with carbon monoxide): arrested embryogenesis
progression through embryogenesis during exposure ([3]; embryos, 101 kPa CO): did not progress through embryogenesis
induction of suspended animation ([3]; nematodes, 100% carbon monoxide): induced reversible suspended animation
suspended animation ([3]; wild-type and hif-1(ia04) embryos, 0.25 kPa O2 balanced with carbon monoxide): entered into suspended animation
Total colonies ([4]; Foreskin 1, 100% CO 24 hrs): 542 colonies (many of which were very
Total colonies ([4]; Foreskin 2, 100% CO 24 hrs): 780 colonies (many of which were very
survival of human keratinocytes (FIG. 1) ([4]; exposure to 100% CO): survive
survival of skin cells in CO relative to room air ([4]; human skin, 100% CO, after 24 hrs): 100 fold
growth of keratinocyte populations (visual inspection) ([4]; three foreskins, 24 hr 100% CO at room temperature, then five days culture): significant growth
